# Publication PMC11181328 (Journal of Medicinal Chemistry, 2024)
# Structures can show the parent of a compound that is named as a salt.
# Experiments:
# male Swiss Webster mice [1] = assay: Warm-water tail immersion assay, time course study; type: in vivo, mouse; conditions: 0.1 mg/kg s.c.
# male Swiss Webster mice [2] = assay: Warm-water tail immersion assay, receptor selectivity study; type: in vivo, mouse
# male Swiss Webster mice [3] = assay: Locomotor activity assay; type: in vivo, mouse; conditions: s.c., 30 min session
# Experimental: This hypolocomotion could result in false positives in assays of evoked antinociception such as WWTI.[115] Thus, a locomotor activity assay was utilized to assess this end point in accordance with previous studies.[28] In brief, the day prior to testing, mice were placed in the open field chamber for acclimation. On the test day, they were injected with compounds 21, 23, NLF, or vehicle and immediately placed back into the open field chamber. Photo beam breaks then recorded the mouse’s locomotion over a 30 min test period.
# Six open field activity chambers (Med Associates, St. Albans, VT) were used in the locomotor activity study. Each chamber is located inside a sound-attenuating cubicle (Med Associates) and is equipped with a ventilation system. The interior of the chamber consists of a 27 × 27 cm plexiglass enclosure wired with photobeam cells and connected to a computer console that monitors the activity of the animal.
# The day before the experiment, mice were acclimated to the activity chambers for a period of 30 min. On the day of the experiment, mice were administered vehicle or test compound s.c., placed into the activity chambers immediately and activity was monitored and recorded for a period of 30 min.
# The primary dependent measures are total (1) distance traveled (cm), (2) ambulatory counts, (3) vertical counts, and (4) average speed (cm/s) within the 30 min session. Data are shown as mean ± SEM. Data were compared using one-way or two-way ANOVA as appropriate and a significant ANOVA was followed by a Dunnet’s post hoc test as appropriate. Statistical significance was defined as p < 0.05.
# male Swiss Webster mice [4] = conditions: warm-water tail immersion; cited from earlier work
# DOR = target: T1, DOR (Homo sapiens, UniProt P41143); conditions: read-out: radioligand binding affinity (Ki, nM) DOR; [3H]diprenorphine; cited from earlier work
# T1 construct: expressed in transfected cells; membrane homogenate
# [5] = test system: male and female Sprague–Dawley rats; conditions: intravenous, FR5 schedule of reinforcement, 2 h sessions
# male Swiss Webster mice [6] = conditions: 0.1 mg/kg; cited from earlier work
# hERG = hERG (Homo sapiens, UniProt Q12809); conditions: read-out: hERG IC50; cited from earlier work
# [7] = same conditions; cited from earlier work
# male Swiss Webster mice [8] = assay: Warm-water tail immersion assay, antagonism of morphine; type: in vivo, mouse; conditions: s.c. 5 min prior to morphine
# T1 sequence (P41143 whole entry): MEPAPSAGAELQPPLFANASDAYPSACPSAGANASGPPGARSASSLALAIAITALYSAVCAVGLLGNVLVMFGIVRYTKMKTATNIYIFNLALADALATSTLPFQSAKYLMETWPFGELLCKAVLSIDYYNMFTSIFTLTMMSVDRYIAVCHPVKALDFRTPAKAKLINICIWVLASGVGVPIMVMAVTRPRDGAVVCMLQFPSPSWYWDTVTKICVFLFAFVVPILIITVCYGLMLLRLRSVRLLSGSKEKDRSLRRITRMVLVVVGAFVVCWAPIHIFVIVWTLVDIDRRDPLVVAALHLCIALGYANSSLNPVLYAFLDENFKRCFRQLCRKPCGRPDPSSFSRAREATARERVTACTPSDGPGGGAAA
# Chain of hERG (Q12809 whole entry): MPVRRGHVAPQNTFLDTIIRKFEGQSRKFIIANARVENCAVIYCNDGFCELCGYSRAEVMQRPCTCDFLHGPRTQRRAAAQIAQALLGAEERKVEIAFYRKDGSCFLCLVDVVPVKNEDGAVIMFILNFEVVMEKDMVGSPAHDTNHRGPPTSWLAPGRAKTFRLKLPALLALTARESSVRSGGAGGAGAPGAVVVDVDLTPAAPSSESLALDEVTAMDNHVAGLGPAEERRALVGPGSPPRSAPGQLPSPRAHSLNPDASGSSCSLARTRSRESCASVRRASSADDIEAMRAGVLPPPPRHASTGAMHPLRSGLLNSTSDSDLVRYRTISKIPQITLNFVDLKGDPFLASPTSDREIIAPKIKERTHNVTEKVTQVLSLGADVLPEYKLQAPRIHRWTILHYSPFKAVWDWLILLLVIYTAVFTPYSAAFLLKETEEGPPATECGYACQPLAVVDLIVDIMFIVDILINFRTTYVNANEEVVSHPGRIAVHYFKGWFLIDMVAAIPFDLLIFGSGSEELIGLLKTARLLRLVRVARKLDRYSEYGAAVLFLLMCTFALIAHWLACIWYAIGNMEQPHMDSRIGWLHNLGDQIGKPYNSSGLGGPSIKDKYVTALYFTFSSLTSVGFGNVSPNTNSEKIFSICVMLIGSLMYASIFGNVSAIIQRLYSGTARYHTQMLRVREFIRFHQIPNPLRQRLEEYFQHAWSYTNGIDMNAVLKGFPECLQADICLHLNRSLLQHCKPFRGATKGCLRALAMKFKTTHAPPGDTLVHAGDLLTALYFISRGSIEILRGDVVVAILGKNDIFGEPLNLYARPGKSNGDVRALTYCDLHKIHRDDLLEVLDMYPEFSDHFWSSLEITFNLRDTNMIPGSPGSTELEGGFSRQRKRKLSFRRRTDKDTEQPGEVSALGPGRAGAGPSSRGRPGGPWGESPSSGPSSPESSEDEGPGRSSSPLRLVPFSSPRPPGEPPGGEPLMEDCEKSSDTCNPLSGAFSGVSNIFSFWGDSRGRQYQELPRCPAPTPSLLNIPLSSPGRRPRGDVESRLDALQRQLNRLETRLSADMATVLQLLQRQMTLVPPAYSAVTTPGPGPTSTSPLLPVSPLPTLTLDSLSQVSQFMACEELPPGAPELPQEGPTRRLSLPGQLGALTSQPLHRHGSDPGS
Compound,antinociceptive effects significant until (time postinjection) (male Swiss Webster mice [1]) [h],return to the baseline postinjection (male Swiss Webster mice [1]) [h],antagonism of antinociceptive effects by nor-BNI (KOR antagonist) pretreatment (male Swiss Webster mice [2]; 10 mg/kg nor-BNI s.c. 24 h prior to 0.1 mg/kg test compound s.c. (23 also 0.05 mg/kg)),antagonism of antinociceptive effects by β-FNA (MOR antagonist) pretreatment (male Swiss Webster mice [2]; 10 mg/kg β-FNA s.c. 24 h prior to 0.1 mg/kg test compound s.c.),antagonism of antinociceptive effects by NTI (DOR antagonist) pretreatment (male Swiss Webster mice [2]; 15 mg/kg NTI s.c. 30 min prior to 0.1 mg/kg test compound s.c. (23 also 0.05 mg/kg)),antagonism of antinociceptive effects by NTI and nor-BNI pretreatment together (male Swiss Webster mice [2]; nor-BNI 10 mg/kg + NTI 15 mg/kg s.c. prior to test compound),locomotor activity (male Swiss Webster mice [3]),average speed by time versus vehicle (male Swiss Webster mice [3]; Figure 6F–H),potency ED50 [95% CI] mg/kg (male Swiss Webster mice [4]),Ki (DOR) [nM],reinforcing effect (number of infusions earned versus saline) [5],duration of antinociceptive effects (male Swiss Webster mice [6]) [h],IC50 (hERG) [µM],half-life in rat liver S9 fraction [7] [min],blockade of morphine antinociception (male Swiss Webster mice [8])
"CN(C(=O)/C=C/c1ccoc1)[C@@H]1CC[C@@]2(O)[C@H]3Cc4ccc(O)c5c4[C@@]2(CCN3CC2CC2)[C@H]1O5.Cl [NLF, Nalfurafine, reference compound]",1,9,significantly lower,not antagonized by β-FNA,significantly lower,did not result in a more drastic decrease than either antagonist alone,slight dose-dependent trends for decreased locomotion,significantly different from vehicle,0.046 [0.016–0.126] mg/kg,116 ± 20.9,did not function as a reinforcer,–,–,–,–
CN(C(=O)/C=C/c1ccoc1)[C@H]1CC[C@@]2(O)[C@H]3Cc4ccc(O)c5c4[C@@]2(CCN3CC2CC2)[C@H]1O5.Cl [NMF],–,–,–,–,–,–,–,–,0.037 [0.014–0.096] mg/kg,0.64 ± 0.11,–,1,6.7,10,–
"C=CCN1CC[C@]23c4c5ccc(O)c4O[C@H]2C(=O)CC[C@@]3(O)[C@H]1C5 [naloxone, Naloxone HCl]",–,–,–,–,–,–,–,–,–,–,–,–,–,–,sufficiently antagonized morphine antinociception
